Test results published in ChEMBL document CHEMBL5055656, “Synthesis of novel indole-thiazolidinone hybrid structures as promising scaffold with anticancer potential” (Bioorg Med Chem, 2021).
The source made the active and inactive calls. No cut-off for these calls is given here.

Columns and labels:
[1] = Selectivity index, ratio of GI50 for human HaCaT cells to GI50 for human HepG2 cells; format: toxicity; conditions: HaCaT cells versus HepG2 cells, read-out: RatioGI50
[2] = test system: HCT-116; test: Cytotoxicity against human HCT-116 cells assessed as cell growth inhibition measured after 72 hrs by MTT assay; format: functional
[3] = test system: THP-1; test: Cytotoxicity against human THP-1 cells assessed as cell growth inhibition measured after 72 hrs by MTT assay; format: functional
[4] = Selectivity index, ratio of GI50 for human HaCaT cells to GI50 for human A549 cells; format: toxicity; conditions: HaCaT cells versus A549 cells, read-out: RatioGI50
[5] = Selectivity index, ratio of GI50 for mouse BALA/3T3 cells to GI50 for human THP-1 cells
[6] = Selectivity index, ratio of GI50 for mouse BALA/3T3 cells to GI50 for human WM793 cells
[7] = Selectivity index, ratio of GI50 for mouse BALA/3T3 cells to GI50 for human HeLa cells; format: toxicity; conditions: BALA/3T3 cells versus HeLa cells, read-out: RatioGI50
[8] = Cytotoxicity against human HaCaT cells assessed as cell growth inhibition measured after 72 hrs by MTT assay; format: cell-based
[9] = Selectivity index, ratio of GI50 for human HaCaT mouse BALA/3T3 cells to GI50 for human A549 cells; format: toxicity; conditions: read-out: RatioGI50
[10] = Selectivity index, ratio of GI50 for human HaCaT cells to GI50 for human HeLa cells; format: toxicity; conditions: HaCaT cells versus HeLa cells, read-out: RatioGI50
[11] = test system: A549; test: Cytotoxicity against human A549 cells assessed as cell growth inhibition measured after 72 hrs by MTT assay; format: functional
[12] = Cytotoxicity against mouse BALB/3T3 cells assessed as cell growth inhibition measured after 72 hrs by MTT assay; format: cell-based
[13] = Selectivity index, ratio of GI50 for human HaCaT cells to GI50 for human MCF7 cells; format: toxicity; conditions: HaCaT cells versus MCF7 cells, read-out: RatioGI50
[14] = test system: MCF7; test: Cytotoxicity against human MCF7 cells assessed as cell growth inhibition measured after 72 hrs by MTT assay; format: functional
[15] = Selectivity index, ratio of GI50 for human HaCaT cells to GI50 for human THP-1 cells
[16] = test system: WM793; test: Cytotoxicity against human WM793 cells assessed as cell growth inhibition measured after 72 hrs by MTT assay; format: functional
[17] = Selectivity index, ratio of GI50 for mouse BALA/3T3 cells to GI50 for human HepG2 cells; format: toxicity; conditions: BALA/3T3 cells versus HepG2 cells, read-out: RatioGI50
[18] = test system: HepG2; test: Cytotoxicity against human HepG2 cells assessed as cell growth inhibition measured after 72 hrs by MTT assay; format: functional
[19] = Cytotoxicity against human HaCaT cells assessed as cell growth inhibition at 100 uM measured after 72 hrs by MTT assay relative to control; format: cell-based; conditions: read-out: Activity
[20] = Selectivity index, ratio of GI50 for human HaCaT cells to GI50 for human WM793 cells
[21] = Selectivity index, ratio of GI50 for mouse BALA/3T3 cells to GI50 for human HCT-116 cells; format: toxicity; conditions: BALA/3T3 cells versus HCT-116 cells, read-out: RatioGI50
[22] = Selectivity index, ratio of GI50 for human HaCaT cells to GI50 for human HCT-116 cells; format: toxicity; conditions: HaCaT cells versus HCT-116 cells, read-out: RatioGI50
[23] = test system: HeLa; test: Cytotoxicity against human HeLa cells assessed as cell growth inhibition measured after 72 hrs by MTT assay; format: functional
[24] = Selectivity index, ratio of GI50 for mouse BALA/3T3 cells to GI50 for human MCF7 cells; format: toxicity; conditions: BALA/3T3 cells versus MCF7 cells, read-out: RatioGI50
[25] = test system: HepG2; test: Induction of DNA damage in human HepG2 cells assessed as increase in tail length incubated at 0.5 uM measured after 24 hrs by alkaline Comet assay; format: functional
[26] = test system: HepG2; test: Induction of apoptosis in human HepG2 cells assessed as increase in phospho-Chk2 expression at 1.6 uM after 24 hrs by Western blot analysis; format: functional, cell-based
[27] = test system: HCT-116; test: Induction of apoptosis in human HCT-116 cells assessed as activation of cleaved PARP1 expression at 0.7 uM incubated for 24 hrs by Western blot analysis; format: functional, cell-based
[28] = test system: HCT-116; test: Induction of DNA damage in human HCT-116 cells assessed as increase in olive tail moment incubated at 0.5 uM measured after 24 hrs by alkaline Comet assay; format: functional
[29] = test system: HCT-116; test: Induction of cell cycle arrest in human HCT-116 cells assessed as decrease in phospho-Rb expression measured after 24 hrs by Western blot analysis; format: functional, cell-based
[30] = test system: HepG2; test: Induction of apoptosis in human HepG2 cells assessed as increase in Bax expression at 1.6 uM after 24 hrs by Western blot analysis; format: functional, cell-based
[31] = test system: Salmon testes DNA; test: Displacement of methyl green from salmon sperm DNA at 1 uM measured after 2 hrs by fluorescence plate reader method relative to control; format: cell-based; conditions: Salmo salar, Spermatozoa
[32] = test system: HepG2; test: Induction of DNA damage in human HepG2 cells assessed as increase in olive tail moment incubated at 0.5 uM measured after 24 hrs by alkaline Comet assay; format: functional
[33] = test system: BALB/3T3; test: Induction of DNA damage in mouse BALB/3T3 cells assessed as increase in olive tail moment incubated at 1.6 uM measured after 24 hrs by alkaline Comet assay; format: cell-based; conditions: balb/3t3, 24 h
[34] = test system: BALB/3T3; test: Induction of DNA damage in mouse BALB/3T3 cells assessed as increase in tail length incubated at 1.6 uM measured after 24 hrs by alkaline Comet assay; format: cell-based; conditions: balb/3t3, 24 h
[35] = test system: Salmon testes DNA; test: Displacement of methyl green from salmon sperm DNA at 10 uM measured after 2 hrs by fluorescence plate reader method relative to control; format: cell-based; conditions: Salmo salar, Spermatozoa
[36] = test system: HepG2; test: Induction of apoptosis in human HepG2 cells assessed as effect on phospho-Rb expression at 1.6 uM after 24 hrs by Western blot analysis; format: functional, cell-based
[37] = test system: HepG2; test: Induction of apoptosis in human HepG2 cells assessed as increase in Cdk2 expression at 1.6 uM after 24 hrs by Western blot analysis; format: functional, cell-based
[38] = test system: HCT-116; test: Induction of DNA damage in human HCT-116 cells assessed as increase in tail length incubated at 0.5 uM measured after 24 hrs by alkaline Comet assay; format: functional
[39] = test system: MCF7; test: Induction of apoptosis in human MCF7 cells assessed as activation of cleaved PARP1 expression at 0.7 uM incubated for 24 hrs by Western blot analysis; format: functional, cell-based

## COC(=O)c1[nH]c2ccc(F)cc2c1/C=C1\NC(=S)NC1=O
[1]
  selectivity ratio: 2.95
[2]
  GI50: 53 µM
[3]
  GI50: 58.3 µM
[4]
  selectivity ratio: 2.03
[5]
  RatioGI50: 1.72
[6]
  RatioGI50: 1.19
[7]
  selectivity ratio: 1.72
[8]
  GI50 at 72 h: > 100 µM
[9]
  selectivity ratio: 2.03
[10]
  selectivity ratio: 1.72
[11]
  GI50: 49.2 µM
[12]
  GI50 at 72 h: > 100 µM
[13]
  selectivity ratio: 1.57
[14]
  GI50: 63.7 µM
[15]
  RatioGI50: 1.72
[16]
  GI50: 84.2 µM
[17]
  selectivity ratio: 2.95
[18]
  GI50: 33.9 µM
[19]
  inhibition at 72 h, 100 µM: 43.3%
[20]
  RatioGI50: 1.19
[21]
  selectivity ratio: 1.89
[22]
  selectivity ratio: 1.89
[23]
  GI50: 58.1 µM
[24]
  selectivity ratio: 1.57

## COC(=O)c1[nH]c2ccc(F)cc2c1/C=C1\SC(=O)NC1=S
[1]
  selectivity ratio: 1.41
[2]
  GI50: 45.1 µM
[3]
  GI50: 28.5 µM
[4]
  selectivity ratio: 9.9
[5]
  RatioGI50: 3.02
[6]
  RatioGI50: 1.04
[7]
  selectivity ratio: 1.57
[8]
  GI50 at 72 h: 83.1 µM
[9]
  selectivity ratio: 9.9
[10]
  selectivity ratio: 1.57
[11]
  GI50: 8.7 µM
[12]
  GI50 at 72 h: 89.2 µM
[13]
  selectivity ratio: 1.64
[14]
  GI50: 52.5 µM
[15]
  RatioGI50: 3.02
[16]
  GI50: 83.1 µM
[17]
  selectivity ratio: 1.41
[18]
  GI50: 60.9 µM
[20]
  RatioGI50: 1.04
[21]
  selectivity ratio: 1.91
[22]
  selectivity ratio: 1.91
[23]
  GI50: 55 µM
[24]
  selectivity ratio: 1.64

## COC(=O)c1[nH]c2ccc(F)cc2c1C=O
[1]
  selectivity ratio: 0.67
[2]
  GI50: > 100 µM
[3]
  GI50: 7.7 µM
[4]
  selectivity ratio: 1.49
[5]
  RatioGI50: 8.66
[6]
  RatioGI50: 0.81
[7]
  selectivity ratio: 0.67
[8]
  GI50 at 72 h: 69.3 µM
[9]
  selectivity ratio: 1.49
[10]
  selectivity ratio: 0.67
[11]
  GI50: 44.8 µM
[12]
  GI50 at 72 h: 64 µM
[13]
  selectivity ratio: 0.67
[14]
  GI50: > 100 µM
[15]
  RatioGI50: 8.66
[16]
  GI50: 82.5 µM
[17]
  selectivity ratio: 0.67
[18]
  GI50: > 100 µM
[20]
  RatioGI50: 0.81
[21]
  selectivity ratio: 0.67
[22]
  selectivity ratio: 0.67
[23]
  GI50: 100 µM
[24]
  selectivity ratio: 0.67

## COc1cccc2c1C(=O)c1c(O)c3c(c(O)c1C2=O)C[C@@](O)(C(=O)CO)C[C@@H]3O[C@H]1C[C@H](N)[C@H](O)[C@H](C)O1 [DOXORUBICIN]
[2]
  GI50: 0.6 µM
[25]
  Activity: 23.4%
[26]
  Activity: Active
[3]
  GI50: 0.6 µM
[27]
  Activity: Active
[28]
  Activity: 10.3
[29]
  Activity: Active
[30]
  Activity: Active
[8]
  GI50 at 72 h: 0.9 µM
[31]
  Activity: 29.2%
[32]
  Activity: 6.92
[33]
  Activity: 5.9
[11]
  GI50: 0.6 µM
[12]
  GI50 at 72 h: 0.6 µM
[34]
  Activity: 15.9%
[35]
  Activity: 69.7%
[36]
  Activity: Active
[14]
  GI50: 0.4 µM
[37]
  Activity: Active
[16]
  GI50: 0.6 µM
[18]
  GI50: 0.7 µM
[38]
  Activity: 28.4%
[23]
  GI50: 0.3 µM
[39]
  Activity: Active

## COC(=O)c1[nH]c2ccc(F)cc2c1/C=C1\SC(=O)NC1=O
[1]
  selectivity ratio: 3.36
[2]
  GI50: 67.6 µM
[3]
  GI50: 45 µM
[4]
  selectivity ratio: 3.94
[5]
  RatioGI50: 1.72
[6]
  RatioGI50: 1.2
[7]
  selectivity ratio: 2.1
[8]
  GI50 at 72 h: > 100 µM
[9]
  selectivity ratio: 3.94
[10]
  selectivity ratio: 2.1
[11]
  GI50: 25.4 µM
[12]
  GI50 at 72 h: > 100 µM
[13]
  selectivity ratio: 1.24
[14]
  GI50: 80.7 µM
[15]
  RatioGI50: 1.72
[16]
  GI50: 83.1 µM
[17]
  selectivity ratio: 3.36
[18]
  GI50: 29.8 µM
[19]
  inhibition at 72 h, 100 µM: 43.4%
[20]
  RatioGI50: 1.2
[21]
  selectivity ratio: 1.48
[22]
  selectivity ratio: 1.48
[23]
  GI50: 47.6 µM
[24]
  selectivity ratio: 1.24

## COC(=O)c1[nH]c2ccc(F)cc2c1/C=C1\SC(N)=NC1=O
[1]
  selectivity ratio: 1.31
[2]
  GI50: 9.5 µM
[3]
  GI50: 100 µM
[4]
  selectivity ratio: 1.04
[5]
  RatioGI50: 0.65
[6]
  RatioGI50: 0.66
[7]
  selectivity ratio: 0.7
[8]
  GI50 at 72 h: > 100 µM
[9]
  selectivity ratio: 1.04
[10]
  selectivity ratio: 0.7
[11]
  GI50: 62.7 µM
[12]
  GI50 at 72 h: 30.3 µM
[13]
  selectivity ratio: 0.96
[14]
  GI50: 67.7 µM
[15]
  RatioGI50: 0.65
[16]
  GI50: 98.6 µM
[17]
  selectivity ratio: 1.31
[18]
  GI50: 49.8 µM
[19]
  inhibition at 72 h, 100 µM: 20.2%
[20]
  RatioGI50: 0.66
[21]
  selectivity ratio: 6.86
[22]
  selectivity ratio: 6.86
[23]
  GI50: 93.3 µM
[24]
  selectivity ratio: 0.96
